The text below walks through data of article PMC5845004, “Novel (p)ppGpp Binding and Metabolizing Proteins of Escherichia coli” (mBio, 2018).

“Also recorded” adds a separate entry of the source. Where two headings read alike, the source gives them in different places.

One test has as its target T1, NudG (Escherichia coli, UniProt P77788).
T1 construct: expressed in transfected cells; host or cells: E. coli ASKA collection strain, IPTG-induced, whole-cell lysate
As to the kind of experiment: In vitro cleavage assay (TLC), NudG. The note with it: purified NudG, buffer B with 10 mM MgCl2, TLC. It counts as biochemical, E. coli. The procedure: (§1) The purified His6-MutT and His6-NudG proteins were tested for their relative levels of cleavage of ppGpp compared to those seen with their native substrates. For this, a 1 μM concentration of each protein and a 10 nM concentration of [α-^32P]ppGpp were used together with 100 μM concentrations of cold competitors [ppGpp, GTP, ATP, 8-oxo-(d)GTP, 2-hydroxyl-(d)ATP] or 50 mM EDTA in buffer B. The samples were incubated at 30°C for 10 min and for 1 h before the reactions were stopped by adding 50 mM EDTA. The cleavage products were resolved by TLC as described above. The purified His6-NadR and His6-TrmE proteins were tested for their cleavage of both GTP and ppGpp. For cleavage of GTP, 10 μM concentrations of His6-MBP, His6-TrmE, and 20 μM His6-NadR proteins were used with 2 nM [α-^32P]GTP and 100 μM cold GTP in buffer B. For cleavage of ppGpp, 10 μM concentrations of His6-TrmE, His6-MBP, and His6-NadR proteins were used with 10 nM [α-^32P]ppGpp in buffer B. Of note, for His6-TrmE, another reaction was also performed in buffer B supplemented with 100 mM KCl. The reactions were performed at RT for 10 min and were stopped by adding 17% formic acid. The cleavage products were resolved by TLC as described above.
(§2) A 20 μM concentration of each of purified proteins MutT, NudG, NadR, TrmE, and MBP (as a negative control) was incubated with 100 μM ppGpp in buffer B (containing 40 mM Tris [pH 7.5], 100 mM NaCl, and 10 mM MgCl2) for 20 min at room temperature. Samples were snap-frozen on dry ice and analyzed with UPLC-MS afterward. All samples and buffers were stored at −80°C, thawed on ice, and kept at 4°C during analysis. For the analysis, a UPLC-quadrupole time of flight (UPLC-qTOF) method (Waters) was used. Analysis conditions were as follows: column, zic-HILIC (Merck Millipore) (150 by 2.1 mm, […], gradient elution, flow rate set to 0.3 ml/min); mobile phase A, 10 mM ammonium acetate (pH 5); mobile phase B, 90% acetonitrile with 10 mM ammonium acetate (pH 5). The gradient was set up as follows: min 0 to 2, 80% B; min 2 to 16, 80% B to 50% B; hold until min 20; injection volume, 4 µl. The detection conditions were as follows: photodiode array detector (PDA), […] (evaluated at 260 nm); MS, ionization; electrospray ionization (ESI+), scan, 200 to 800 m/z with lock mass correction. Analytes were identified by their accurate mass and retention time data for a known standard dissolved in used buffer (for the chemicals of the same nominal masses). These standards were either synthesized and their structures confirmed by nuclear magnetic resonance (NMR) (for ppGp, pGpp, and pGp) or purchased (ppGpp was purchased from Jena Biocsience and GTP from Sigma-Aldrich).

The subject of test [1] is DnaG. The note with it: ref Table S1 (12); cited from earlier work.
A further test concerns the target Gpt (Escherichia coli, UniProt P0A9M5). As to the kind of experiment: DRaCALA competition assay, Gpt. The note with it: 20 µM Gpt, 2 nM hot ppGpp, 100 µM cold competitor. In kind it is binding, E. coli.
The target of a further test is YybT /GdpP. The note with it: other bacteria, cited from earlier work.
The target of test [2] is T2, PurA (Escherichia coli, UniProt P0A7D4). The note with it: cited from earlier work.
The target in test [3] is T3, Apt (Escherichia coli, UniProt P69503). The test is described as follows: DRaCALA binding, purified Apt. Details: species or system E. coli. The note with it: up to 150 µM Apt.
In test [4] the target is T4, YgdH (Escherichia coli, UniProt P0ADR8). As to the kind of experiment: TLC of YgdH binding reactions (degradation test). In kind it is biochemical, E. coli. The note with it: binding reactions analyzed by TLC.
The test system of another test is RelA. The arrangement: method as in ref 36 (Table S1 ref 16). The note with it: ref 36 (Table S1 ref 16); cited from earlier work.
The target in the next test is MutT (Escherichia coli, UniProt P08337). As to the kind of experiment: In vitro cleavage assay (TLC), MutT. The note with it: purified MutT, buffer B with 10 mM MgCl2, TLC. In kind it is biochemical, E. coli. Here is the method: as §1, §2
Test [5] deals with T4, YgdH. The test is described as follows: DRaCALA competition assay, YgdH. It counts as binding, E. coli. The note with it: 100 µM cold competitor; data not shown.
A further test addresses T5, UshA (Escherichia coli, UniProt P07024).
T5 sequence (P07024 26-550): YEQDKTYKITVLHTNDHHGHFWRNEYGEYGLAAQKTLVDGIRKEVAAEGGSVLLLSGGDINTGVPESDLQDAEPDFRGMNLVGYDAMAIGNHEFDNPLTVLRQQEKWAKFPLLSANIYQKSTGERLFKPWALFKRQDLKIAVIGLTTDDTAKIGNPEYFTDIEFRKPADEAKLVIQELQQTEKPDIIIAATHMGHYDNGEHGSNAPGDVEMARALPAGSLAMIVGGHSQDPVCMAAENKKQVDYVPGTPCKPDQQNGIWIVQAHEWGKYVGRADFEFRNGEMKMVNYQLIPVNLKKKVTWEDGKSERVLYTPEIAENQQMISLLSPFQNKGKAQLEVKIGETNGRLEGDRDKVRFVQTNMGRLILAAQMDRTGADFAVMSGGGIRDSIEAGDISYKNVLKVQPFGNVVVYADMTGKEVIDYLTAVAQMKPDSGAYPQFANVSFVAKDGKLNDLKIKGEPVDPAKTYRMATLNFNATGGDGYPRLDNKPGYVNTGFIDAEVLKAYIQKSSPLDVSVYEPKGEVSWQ
As to the kind of experiment: Cleavage of (p)ppGpp by UshA. It counts as biochemical, E. coli. From the text:
(§3) Supplement mbo001183765st1.docx, table 1: Table S1. List of proteins that bind or cleave (p)ppGpp. | column: Binding (Kd or otherwise stated in µM) or cleavage of (p)ppGpp in E. coli

A further test has as its target NadR (Escherichia coli, UniProt P27278). The test is described as follows: In vitro cleavage assay (TLC), NadR. Particulars: 10-20 µM NadR, buffer B with 100 mM NaCl, 10 min. It counts as biochemical, E. coli. Here is the method: The purified His6-MutT and His6-NudG proteins were tested for their relative levels of cleavage of ppGpp compared to those seen with their native substrates. For this, a 1 μM concentration of each protein and a 10 nM concentration of [α-^32P]ppGpp were used together with 100 μM concentrations of cold competitors [ppGpp, GTP, ATP, 8-oxo-(d)GTP, 2-hydroxyl-(d)ATP] or 50 mM EDTA in buffer B. The samples were incubated at 30°C for 10 min and for 1 h before the reactions were stopped by adding 50 mM EDTA. The cleavage products were resolved by TLC as described above. The purified His6-NadR and His6-TrmE proteins were tested for their cleavage of both GTP and ppGpp. […]
(§4) A 20 μM concentration of each of purified proteins MutT, NudG, NadR, TrmE, and MBP (as a negative control) was incubated with 100 μM ppGpp in buffer B (containing 40 mM Tris [pH 7.5], 100 mM NaCl, and 10 mM MgCl2) for 20 min at room temperature. Samples were snap-frozen on dry ice and analyzed with UPLC-MS afterward. […] The detection conditions were as follows: photodiode array detector (PDA), […] (evaluated at 260 nm); MS, ionization; electrospray ionization (ESI+), scan, 200 to 800 m/z with lock mass correction. […]

A further test deals with PhoA (Escherichia coli, UniProt P00634). The test is described as follows: Cleavage of (p)ppGpp by PhoA. It counts as biochemical, E. coli.
Excerpt: as §3

Another test deals with Hpt (Escherichia coli, UniProt P0A9M2). As to the kind of experiment: DRaCALA competition assay, Hpt. It counts as binding, E. coli. The note with it: 20 µM Hpt, 2 nM hot ppGpp, 100 µM cold competitor.
In test [6] the target is T3, Apt. Particulars: ref Table S1 (2); cited from earlier work.
The target in another test is GuaB. Details: method as in ref 29, 31, 47 (Table S1 ref 5). The note with it: 47 (Table S1 ref 5); cited from earlier work.
In test [7] the target is T2, PurA. As to the kind of experiment: DRaCALA binding, purified PurA. The arrangement: species or system E. coli. Particulars: PurA up to 150 µM.
Method: (§5) For Kd measurements by DRaCALA, 2-fold serial dilutions from the highest possible concentrations of each purified protein were prepared in binding buffer B, and approximately 2 nM concentrations of α-^32P-labeled ppGpp, pppGpp, GTP, and GDP were added. The mixtures were incubated for 5 min at RT before spotting of 2 µl of the reaction mixtures onto nitrocellulose membranes. The fractions of bound ligand and the apparent Kd values were calculated as previously described ([37]). For competition assays, purified proteins at the specified concentrations were incubated with 2 nM [α-^32P]ppGpp or [α-^32P]pppGpp in the presence of 100 μM competitor nucleotides in binding buffer B. The reaction mixtures were incubated for 5 min at RT, 2 µl was spotted onto nitrocellulose membranes, and the values corresponding to the bound fractions were determined. EDTA was added at excess concentrations as specified for each case.
The target in test [8] is T4, YgdH. As to the kind of experiment: DRaCALA binding and Kd determination, purified YgdH. Details: species or system E. coli. Particulars: 20 µM YgdH, binding buffer with 10 mM MgCl2, no EDTA.
Method: For Kd measurements by DRaCALA, 2-fold serial dilutions from the highest possible concentrations of each purified protein were prepared in binding buffer B, and approximately 2 nM concentrations of α-^32P-labeled ppGpp, pppGpp, GTP, and GDP were added. The mixtures were incubated for 5 min at RT before spotting of 2 µl of the reaction mixtures onto nitrocellulose membranes. […] For competition assays, purified proteins at the specified concentrations were incubated with 2 nM [α-^32P]ppGpp or [α-^32P]pppGpp in the presence of 100 μM competitor nucleotides in binding buffer B. The reaction mixtures were incubated for 5 min at RT, 2 µl was spotted onto nitrocellulose membranes, and the values corresponding to the bound fractions were determined. EDTA was added at excess concentrations as specified for each case.
A further test relates to RNAP /DksA. Details: method as in Table S1 (14). Particulars: ref Table S1 (14); cited from earlier work.
Test [9] has as its system DnaG. The arrangement: method as in Table S1 (13). Particulars: ref Table S1 (13); read-out: IC50, B. subtilis DnaG; cited from earlier work.
For the next test, the target named is TrmE (Escherichia coli, UniProt P25522). The test is described as follows: In vitro cleavage assay (TLC), TrmE. In kind it is biochemical, E. coli. The note with it: 10 µM TrmE, buffer B, with 100 mM potassium where stated, 10 min. Here is the method: as §1
as §4, with “afterward. All samples and buffers were stored at −80°C, thawed on ice, and kept at 4°C during analysis. For the analysis, a UPLC-quadrupole time of flight (UPLC-qTOF) method (Waters) was used.” for “afterward.”

T4 sequence (P0ADR8 whole entry): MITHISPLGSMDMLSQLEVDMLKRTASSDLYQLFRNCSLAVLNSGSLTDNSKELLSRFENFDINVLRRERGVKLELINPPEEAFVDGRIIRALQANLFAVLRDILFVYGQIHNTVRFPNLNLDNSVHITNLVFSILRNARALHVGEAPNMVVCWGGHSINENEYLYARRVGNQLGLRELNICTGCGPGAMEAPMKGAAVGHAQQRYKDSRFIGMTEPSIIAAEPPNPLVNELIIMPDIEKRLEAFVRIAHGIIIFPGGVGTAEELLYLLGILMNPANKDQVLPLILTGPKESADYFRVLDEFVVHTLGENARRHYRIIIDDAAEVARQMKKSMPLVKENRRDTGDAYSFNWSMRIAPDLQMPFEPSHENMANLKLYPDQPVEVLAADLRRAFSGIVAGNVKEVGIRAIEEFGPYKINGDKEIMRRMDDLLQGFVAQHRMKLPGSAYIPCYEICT
T2 sequence (P0A7D4 whole entry): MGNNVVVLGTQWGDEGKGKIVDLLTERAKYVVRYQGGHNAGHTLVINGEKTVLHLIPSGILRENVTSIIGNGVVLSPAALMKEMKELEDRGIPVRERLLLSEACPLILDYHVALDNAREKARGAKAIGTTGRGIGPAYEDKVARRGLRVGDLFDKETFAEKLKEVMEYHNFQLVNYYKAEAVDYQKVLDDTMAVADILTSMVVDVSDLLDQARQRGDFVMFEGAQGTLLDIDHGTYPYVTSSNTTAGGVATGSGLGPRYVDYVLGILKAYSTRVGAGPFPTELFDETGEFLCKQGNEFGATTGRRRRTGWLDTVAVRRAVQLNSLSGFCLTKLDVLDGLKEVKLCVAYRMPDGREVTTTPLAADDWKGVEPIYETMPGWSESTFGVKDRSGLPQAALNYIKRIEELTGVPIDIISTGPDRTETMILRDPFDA
T3 sequence (P69503 whole entry): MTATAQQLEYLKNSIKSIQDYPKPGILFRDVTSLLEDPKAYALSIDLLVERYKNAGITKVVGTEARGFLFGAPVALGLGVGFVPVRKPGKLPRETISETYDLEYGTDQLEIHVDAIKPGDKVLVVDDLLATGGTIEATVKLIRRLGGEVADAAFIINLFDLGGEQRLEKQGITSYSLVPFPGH
Chain of NadR (P27278 whole entry): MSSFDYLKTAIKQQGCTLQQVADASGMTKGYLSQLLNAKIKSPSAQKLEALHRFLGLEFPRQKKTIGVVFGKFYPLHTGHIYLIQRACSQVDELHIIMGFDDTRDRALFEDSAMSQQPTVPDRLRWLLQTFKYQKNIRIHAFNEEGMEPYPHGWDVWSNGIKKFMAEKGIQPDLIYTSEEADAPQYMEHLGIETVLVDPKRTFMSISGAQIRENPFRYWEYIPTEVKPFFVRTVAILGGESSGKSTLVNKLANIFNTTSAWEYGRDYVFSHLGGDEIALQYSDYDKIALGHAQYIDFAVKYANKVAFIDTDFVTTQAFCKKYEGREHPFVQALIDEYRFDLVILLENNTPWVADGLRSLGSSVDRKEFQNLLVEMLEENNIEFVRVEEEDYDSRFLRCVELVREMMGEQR
Chain of TrmE (P25522 whole entry): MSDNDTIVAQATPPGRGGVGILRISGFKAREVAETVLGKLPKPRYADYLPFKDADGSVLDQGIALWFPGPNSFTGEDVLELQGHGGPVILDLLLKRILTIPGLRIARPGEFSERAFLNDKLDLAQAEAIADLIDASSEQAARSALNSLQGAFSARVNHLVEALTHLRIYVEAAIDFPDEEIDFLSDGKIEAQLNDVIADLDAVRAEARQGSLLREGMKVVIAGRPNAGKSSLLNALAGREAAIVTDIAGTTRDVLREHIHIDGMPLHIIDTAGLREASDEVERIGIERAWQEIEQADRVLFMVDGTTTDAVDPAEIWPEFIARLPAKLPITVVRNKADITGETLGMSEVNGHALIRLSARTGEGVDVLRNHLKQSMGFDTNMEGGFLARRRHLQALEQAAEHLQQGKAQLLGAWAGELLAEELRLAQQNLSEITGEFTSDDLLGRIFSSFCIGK
Chain of PhoA (P00634 22-471): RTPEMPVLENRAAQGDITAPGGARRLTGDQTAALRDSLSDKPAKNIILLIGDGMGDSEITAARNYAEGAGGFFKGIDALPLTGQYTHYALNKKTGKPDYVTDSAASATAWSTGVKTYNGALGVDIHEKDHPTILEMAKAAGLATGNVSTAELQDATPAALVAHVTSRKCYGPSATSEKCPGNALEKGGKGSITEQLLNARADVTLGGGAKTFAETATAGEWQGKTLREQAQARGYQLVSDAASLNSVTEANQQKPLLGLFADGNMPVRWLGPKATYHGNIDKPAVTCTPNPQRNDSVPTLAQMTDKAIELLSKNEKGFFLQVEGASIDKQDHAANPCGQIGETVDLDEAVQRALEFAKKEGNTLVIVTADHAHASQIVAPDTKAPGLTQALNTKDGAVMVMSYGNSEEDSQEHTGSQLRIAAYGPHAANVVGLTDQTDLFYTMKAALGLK
Chain of Hpt (P0A9M2 whole entry): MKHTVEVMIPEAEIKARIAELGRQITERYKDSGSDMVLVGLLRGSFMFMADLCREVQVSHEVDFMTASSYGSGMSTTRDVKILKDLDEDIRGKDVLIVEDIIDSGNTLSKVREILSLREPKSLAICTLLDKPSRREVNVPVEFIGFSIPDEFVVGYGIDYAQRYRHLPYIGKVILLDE
T1 sequence (P77788 whole entry): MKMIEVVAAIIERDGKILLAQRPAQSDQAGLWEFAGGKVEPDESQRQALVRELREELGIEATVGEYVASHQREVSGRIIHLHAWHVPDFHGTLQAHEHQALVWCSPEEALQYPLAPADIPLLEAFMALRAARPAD
Chain of MutT (P08337 whole entry): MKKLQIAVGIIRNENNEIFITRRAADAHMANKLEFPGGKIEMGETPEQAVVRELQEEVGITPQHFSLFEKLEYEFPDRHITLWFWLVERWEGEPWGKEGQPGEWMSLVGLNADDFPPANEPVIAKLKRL
Chain of Gpt (P0A9M5 whole entry): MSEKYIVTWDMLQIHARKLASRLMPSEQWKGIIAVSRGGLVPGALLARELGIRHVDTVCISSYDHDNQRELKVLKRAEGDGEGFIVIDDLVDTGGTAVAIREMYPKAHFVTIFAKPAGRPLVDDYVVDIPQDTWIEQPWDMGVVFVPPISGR
Method for Gpt: The mixtures were incubated for 5 min at RT before spotting of 2 µl of the reaction mixtures onto nitrocellulose membranes. […] For competition assays, purified proteins at the specified concentrations were incubated with 2 nM [α-^32P]ppGpp or [α-^32P]pppGpp in the presence of 100 μM competitor nucleotides in binding buffer B. The reaction mixtures were incubated for 5 min at RT, 2 µl was spotted onto nitrocellulose membranes, and the values corresponding to the bound fractions were determined.
Method for Hpt: as §5

The term IC50 denotes the concentration at which inhibition is half-maximal. What is called Ki is the equilibrium dissociation constant of an inhibitor or competing ligand from its target. Regarding (p)ppGpp, the “cleavage by NudG” value at NudG is given as “Cleavage of (p)ppGpp into pGp”. Moreover, the IC50 with DnaG [1] was 200 µM; on Apt [6] it was 1500 µM; in the test with RNAP /DksA it was 15 µM; in the test on DnaG [9], 500 µM. Further, the “competition for bound [α-32P]ppGpp on Gpt” value on Gpt is given as “partially outcompete”. For the same substance, the Ki was 36 µM at YybT /GdpP (ref Table S1 (21)); 130 µM on YybT /GdpP (ref Table S1 (22)); 140 µM on PurA [2] (ref Table S1 (5)); 50 µM on PurA [2] (ref Table S1 (6)); 30 to 50 µM on GuaB. At Apt [3], the “binding to Apt” value is on record as “no significant binding”. Moreover, the “degradation by YgdH” value at YgdH [4] was “not degraded”. In addition, the “effect on RelA activity” value with RelA was “Synthesis of and stimulated by (p)ppGpp; (16)”. In addition, the “cleavage by MutT” value on MutT is on record as “Cleavage of (p)ppGpp into pGp”. Further, the “competition for (p)ppGpp binding to YgdH” value on YgdH [5] is “could outcompete”. Also, the “cleavage by UshA” value at UshA is recorded as “Non-specific cleavage of (p)ppGpp into (p)pi”. Further, the “cleavage by NadR” value on NadR is recorded as “some degradation; also recorded: Cleavage of (p)ppGpp into ppGp/pGpp”. Also, at PhoA, the “cleavage by PhoA” value is on record as “Non-specific cleavage of (p)ppGpp into (p)pi”. The “competition for bound [α-32P]ppGpp on Hpt” value at Hpt was “partially outcompete”. Also, the “binding to PurA” value at PurA [7] is “no specific binding; also recorded: does not significantly bind”. For the same substance, at YgdH [8], the “binding to purified YgdH” value is listed as “not able to significantly bind”. At TrmE, the “cleavage by TrmE” value is on record as “some degradation; also recorded: Cleavage of (p)ppGpp into ppGp/pGpp”.
